Reference: ChEMBL document CHEMBL1129327, “Diphenylpropionic acids as new AT1 selective angiotensin II antagonists” (J Med Chem, 1996)

What was measured:
[1] = molecular target: T1, Angiotensin II receptor (AT-1) type-1 (Rattus norvegicus, UniProt P29089+P25095); assay: Inhibitory concentration was evaluated by measuring displacement of [3H]AII from rat liver Angiotensin II receptor, type 1
T1 sequence (P29089 whole entry): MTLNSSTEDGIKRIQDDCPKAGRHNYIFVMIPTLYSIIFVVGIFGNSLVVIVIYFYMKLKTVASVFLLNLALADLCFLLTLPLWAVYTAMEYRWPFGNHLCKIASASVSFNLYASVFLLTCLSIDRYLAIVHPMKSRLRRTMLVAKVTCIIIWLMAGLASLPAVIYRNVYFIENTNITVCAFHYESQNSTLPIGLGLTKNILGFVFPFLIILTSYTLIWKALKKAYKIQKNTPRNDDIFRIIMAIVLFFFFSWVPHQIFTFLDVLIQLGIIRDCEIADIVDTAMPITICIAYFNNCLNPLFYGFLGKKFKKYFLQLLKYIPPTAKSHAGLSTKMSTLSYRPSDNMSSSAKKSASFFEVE
T1 sequence (P25095 whole entry): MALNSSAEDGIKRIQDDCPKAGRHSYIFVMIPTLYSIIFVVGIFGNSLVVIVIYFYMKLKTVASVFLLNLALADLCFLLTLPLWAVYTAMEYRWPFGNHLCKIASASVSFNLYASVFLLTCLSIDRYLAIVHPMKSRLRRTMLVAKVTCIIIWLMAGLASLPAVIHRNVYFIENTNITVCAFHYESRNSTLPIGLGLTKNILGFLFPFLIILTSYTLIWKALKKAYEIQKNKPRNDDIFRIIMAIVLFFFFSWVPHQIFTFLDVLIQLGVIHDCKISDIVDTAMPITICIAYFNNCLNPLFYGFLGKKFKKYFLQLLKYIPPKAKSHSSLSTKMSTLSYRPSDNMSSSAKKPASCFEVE

[2] = molecular target: Angiotensin II receptor (Rattus norvegicus) (UniProt P29089+P25095+P35351); assay: In vivo inhibitory percentage of pressor response induced by exogenous submaximal dose of angiotensin-II (3 ug/kg) administered iv to pithed rats; assay type: functional, organism-based
Rattus norvegicus [3] = assay: (§1) In vivo inhibitory percentage of pressor response induced by exogenous submaximal dose of angiotensin -II […] administered iv to pithed rats; assay type: functional
Rattus norvegicus [4] = assay: as §1; assay type: functional; remark: listed apart in the source
Oryctolagus cuniculus [5] = species on record: Oryctolagus cuniculus; assay: Antagonism against A-2 induced contraction of aortic rings of rabbit.; details: read-out: pA2 (converted)
Oryctolagus cuniculus [6] = species on record: Oryctolagus cuniculus; assay: Antagonism against A-2 induced contraction of aortic rings from rabbit.; assay type: functional; details: Aorta, read-out: pA2 (converted)

Angiotensin II receptor (Rattus norvegicus), sequence (P35351 whole entry, looked up, one chain of several): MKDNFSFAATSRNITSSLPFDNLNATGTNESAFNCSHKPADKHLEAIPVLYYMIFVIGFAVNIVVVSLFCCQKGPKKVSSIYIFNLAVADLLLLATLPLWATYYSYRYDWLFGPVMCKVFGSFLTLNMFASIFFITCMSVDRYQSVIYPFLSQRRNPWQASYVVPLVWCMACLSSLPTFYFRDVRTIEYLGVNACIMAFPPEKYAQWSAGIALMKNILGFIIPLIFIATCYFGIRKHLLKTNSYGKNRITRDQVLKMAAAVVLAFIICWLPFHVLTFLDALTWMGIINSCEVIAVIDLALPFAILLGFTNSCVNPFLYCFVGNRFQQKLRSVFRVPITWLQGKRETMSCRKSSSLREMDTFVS

In the case of CCc1nc2c(C)cc(C)nc2n1Cc1ccc(/C(=C(/Br)c2nn[nH]n2)c2ccccc2)cc1 (stereo in doubt; 22d) [listing 1 of 2 here], the IC50 [1] is reported as 290 nM.
With CCc1nc2c(C)cc(C)nc2n1Cc1ccc(C(c2cccc(C)c2)C(C(=O)O)C(=O)O)cc1 (stereo not given) the IC50 [1] was 450 nM and the inhibition [2] was 61.7%.
CCc1nc2c(C)cc(C)nc2n1Cc1ccc([C@H](c2ccccc2)[C@H](C)C(=O)O)cc1 (stereo in doubt; (-36)g) showed an IC50 [1] of 76 nM and an Inhibition (Rattus norvegicus [3]) of 80.3%.
CCc1nc2c(C)cc(C)nc2n1Cc1ccc(C(c2ccccc2)C(C(=O)O)C(F)(F)F)cc1 (stereo not given) gave an inhibition [2] of 32.3%.
CCc1nc2c(C)cc(C)nc2n1Cc1ccc(/C(=C\c2nn[nH]n2)c2ccccc2)cc1 (stereo in doubt; 22a) [listing 1 of 2 here] showed an IC50 [1] of 92 nM.
CCc1nc2c(C)cc(C)nc2n1Cc1ccc(C(Cc2ccccc2)C(C(=O)O)C(=O)O)cc1 (stereo not given) was tested, and the IC50 [1] was over 10000 nM and the inhibition [2] was under 10%.
CCc1nc2c(C)cc(C)nc2n1Cc1ccc(C(c2ccccc2)C(C#N)C(=O)O)cc1 (stereo not given) showed an IC50 [1] of 160 nM and an inhibition [2] of 68.7%.
For CCc1nc2c(C)cc(C)nc2n1Cc1ccc([C@H](c2ccccc2)[C@@H](CC)C(=O)O)cc1, the IC50 [1] was 450 nM and the Inhibition (Rattus norvegicus [3]) was 44.9%.
In the case of CCc1nc2c(C)cc(C)nc2n1Cc1ccc(C(CC(=O)NS(C)(=O)=O)c2ccccc2)cc1 (stereo not given), the IC50 [1] is reported as 94 nM and the inhibition [2] is reported as 72.7%.
With CCc1nc2c(C)cc(C)nc2n1Cc1ccc(/C(=C\C(=O)O)c2ccccc2)cc1 (stereo in doubt; 12A) [listing 1 of 2 here] the inhibition [2] was 30.4%.
Work on CCc1nc2c(C)cc(C)nc2n1Cc1ccc([C@H](c2ccccc2)[C@@H](C)C(=O)O)cc1 (stereo in doubt; (+)37g) yielded an IC50 [1] of 440 nM and an Inhibition (Rattus norvegicus [3]) of 19.7%.
For CCc1nc2c(C)cc(C)nc2n1Cc1ccc([C@H](c2ccccc2)[C@H](C)C(=O)O)cc1 (stereo in doubt; 36g), the IC50 [1] was 69 nM, the Inhibition (Rattus norvegicus [4]) was 68.5% and the Inhibition (Rattus norvegicus [3]) was 84.8%. The Kb (Oryctolagus cuniculus [5]) was 2.04 nM.
CCc1nc2c(C)cc(C)nc2n1Cc1ccc(C(Cc2nnn[nH]2)c2ccccc2)cc1 (stereo not given) gave an IC50 [1] of 120 nM and an inhibition [2] of 55.4%.
CCc1nc2c(C)cc(C)nc2n1Cc1ccc(/C(=C\c2nn[nH]n2)c2ccccc2)cc1 (stereo in doubt; 22a) [listing 2 of 2 here] showed an inhibition [2] of 41%.
Work on CCc1nc2c(C)cc(C)nc2n1Cc1ccc(/C(=C\C(=O)O)c2ccccc2)cc1 (stereo in doubt; 12A) [listing 2 of 2 here] yielded an IC50 [1] of 120 nM.
For CCC[C@H](C(=O)O)[C@@H](c1ccccc1)c1ccc(Cn2c(CC)nc3c(C)cc(C)nc32)cc1, the IC50 [1] was 83 nM, the Inhibition (Rattus norvegicus [4]) was 64% and the Inhibition (Rattus norvegicus [3]) was 73.8%.
CCc1nc2c(C)cc(C)nc2n1Cc1ccc([C@H](c2ccccc2)[C@@H](C)C(=O)O)o1 was tested, and the IC50 [1] was 5600 nM and the Inhibition (Rattus norvegicus [3]) was under 10%.
Work on CCc1nc2c(C)cc(C)nc2n1Cc1ccc(C(c2ccccc2)C(Cc2ccccc2)C(=O)O)cc1 (stereo not given) yielded an IC50 [1] of 200 nM and an inhibition [2] of 31.5%.
Compound CCc1nc2c(C)cc(C)nc2n1Cc1ccc(C(CC)C(C)C(=O)O)cc1 (stereo not given) has an IC50 [1] of 330 nM and an inhibition [2] of 45.7%.
With CCc1nc2c(C)cc(C)nc2n1Cc1ccc([C@H](c2ccccc2)[C@H](C)C(=O)O)o1 the IC50 [1] was 4800 nM and the Inhibition (Rattus norvegicus [3]) was under 10%.
In the case of CCc1nc2c(C)cc(C)nc2n1Cc1ccc(/C(=C\C(=O)O)c2ccccc2)cc1 (stereo in doubt; 12B) [listing 1 of 2 here], the IC50 [1] is reported as 170 nM.
In the case of CCc1nc2c(C)cc(C)nc2n1Cc1ccc(C(CC(=O)O)c2ccc(F)cc2F)cc1 (stereo not given), the IC50 [1] is reported as 250 nM and the inhibition [2] is reported as 40.4%.
Compound CCc1nc2c(C)cc(C)nc2n1Cc1ccc(C(CC(=O)NS(=O)(=O)c2ccccc2)c2ccccc2)cc1 (stereo not given) has an IC50 [1] of 360 nM and an inhibition [2] of 48.2%.
Compound CCc1nc2c(C)cc(C)nc2n1Cc1ccc(C(c2ccccc2)C(C)(C)C(=O)O)cc1 (stereo not given) has an IC50 [1] of 240 nM and an inhibition [2] of 50.7%.
With CCc1nc2c(C)cc(C)nc2n1Cc1ccc(C(CCNS(=O)(=O)C(F)(F)F)c2ccccc2)cc1 (stereo not given) the IC50 [1] was over 10000 nM.
Work on CCc1nc2c(C)cc(C)nc2n1Cc1ccc(/C(=C\c2nn[nH]n2)c2ccccc2)cc1 (stereo in doubt; 22b) [listing 1 of 2 here] yielded an IC50 [1] of 130 nM.
CCc1nc2c(C)cc(C)nc2n1Cc1ccc(C(c2ccccc2)C(C(=O)O)C(=O)O)cc1 (stereo not given) was tested, and the IC50 [1] was 120 nM and the inhibition [2] was 79.9%.
Compound CCc1nc2c(C)cc(C)nc2n1Cc1ccc([C@H](c2ccccc2)[C@@H](C)C(=O)O)cc1 (stereo in doubt; 37g) has an IC50 [1] of 250 nM, an Inhibition (Rattus norvegicus [3]) of 28.2% and a Kb (Oryctolagus cuniculus [6]) of 49 nM.
CCc1nc2c(C)cc(C)nc2n1Cc1ccc(C(C(C)C)C(C)C(=O)O)cc1 (stereo not given) was tested, and the IC50 [1] was 600 nM and the inhibition [2] was 30.4%.
With CCc1nc2c(C)cc(C)nc2n1Cc1ccc(C(=C(C(=O)O)C(=O)O)c2ccccc2)cc1 the IC50 [1] was 320 nM and the inhibition [2] was 69.2%.
CCc1nc2c(C)cc(C)nc2n1Cc1ccc(C(CC(=O)O)c2ccccc2Cl)cc1 (stereo not given) gave an IC50 [1] of 200 nM and an inhibition [2] of 69.1%.
For CCc1nc2c(C)cc(C)nc2n1Cc1ccc([C@H](c2ccccc2)[C@H](C)C(=O)NS(C)(=O)=O)cc1, the IC50 [1] was 58 nM, the Inhibition (Rattus norvegicus [4]) was 55.9% and the Inhibition (Rattus norvegicus [3]) was 71.3%.
CCc1nc2c(C)cc(C)nc2n1Cc1ccc(C(c2ccccc2C)C(C(=O)O)C(=O)O)cc1 (stereo not given) was tested, and the IC50 [1] was 210 nM and the inhibition [2] was 62%.
CCc1nc2c(C)cc(C)nc2n1Cc1ccc([C@H](c2ccccc2)[C@@H](C)C(=O)O)cc1 (stereo in doubt; (-)37g) gave an IC50 [1] of 180 nM and an Inhibition (Rattus norvegicus [3]) of 22.1%.
In the case of CCc1nc2c(C)cc(C)nc2n1Cc1ccc([C@H](c2ccccc2)[C@H](CC)C(=O)O)cc1, the IC50 [1] is reported as 50 nM, the Inhibition (Rattus norvegicus [4]) is reported as 73.3% and the Inhibition (Rattus norvegicus [3]) is reported as 86.1%. The Kb (Oryctolagus cuniculus [6]) was 3.89 nM.
CCc1nc2c(C)cc(C)nc2n1Cc1ccc(C(c2ccc(C)cc2)C(C(=O)O)C(=O)O)cc1 (stereo not given) gave an IC50 [1] of 1100 nM and an inhibition [2] of 17.1%.
For CCc1nc2c(C)cc(C)nc2n1Cc1ccc(C(C)C(C)C(=O)O)cc1 (stereo not given), the inhibition [2] was 46%.
CCCCc1nc(Cl)c(CO)n1Cc1ccc(-c2ccccc2-c2nnn[nH]2)cc1 [LOSARTAN] showed an Inhibition (Rattus norvegicus [4]) of 62.5%, an Inhibition (Rattus norvegicus [3]) of 93.5% and a Kb (Oryctolagus cuniculus [6]) of 2.95 nM.
CCc1nc2c(C)cc(C)nc2n1Cc1ccc(C(CC(=O)O)c2ccc(OC)cc2)cc1 (stereo not given) gave an IC50 [1] of 3700 nM.
Work on CCc1nc2c(C)cc(C)nc2n1Cc1ccc(C(CC(=O)O)c2ccccc2)cc1 (stereo not given) yielded an IC50 [1] of 110 nM and an inhibition [2] of 68.5%.
Work on CCc1nc2c(C)cc(C)nc2n1Cc1ccc([C@H](c2ccccc2)[C@H](C)C(=O)O)cc1 (stereo in doubt; (+36)g) yielded an IC50 [1] of 71 nM and an Inhibition (Rattus norvegicus [3]) of 80.9%.
CCc1nc2c(C)cc(C)nc2n1Cc1ccc(C(c2ccccc2)C(C)C(=O)O)cc1 (stereo not given) gave an IC50 [1] of 71 nM and an inhibition [2] of 73.7%.
CCc1nc2c(C)cc(C)nc2n1Cc1ccc(C(CC(=O)O)c2ccccc2F)cc1 (stereo not given) gave an IC50 [1] of 130 nM and an inhibition [2] of 68.7%.
Work on CCc1nc2c(C)cc(C)nc2n1Cc1ccc(/C(=C(/Br)c2nn[nH]n2)c2ccccc2)cc1 (stereo in doubt; 22c) [listing 1 of 2 here] yielded an IC50 [1] of 44 nM.
For CCC[C@@H](C(=O)O)[C@@H](c1ccccc1)c1ccc(Cn2c(CC)nc3c(C)cc(C)nc32)cc1, the IC50 [1] was 590 nM and the Inhibition (Rattus norvegicus [3]) was 27.8%.
Work on CCc1nc2c(C)cc(C)nc2n1Cc1ccc(C(CC(=O)O)c2ccc(-c3ccncc3)cc2)cc1 (stereo not given) yielded an IC50 [1] of 5300 nM.
With CCc1nc2c(C)cc(C)nc2n1Cc1ccc(/C(=C(/Br)c2nn[nH]n2)c2ccccc2)cc1 (stereo in doubt; 22c) [listing 2 of 2 here] the inhibition [2] was 39.9%.
Work on CCc1nc2c(C)cc(C)nc2n1Cc1ccc(/C(=C\c2nn[nH]n2)c2ccccc2)cc1 (stereo in doubt; 22b) [listing 2 of 2 here] yielded an inhibition [2] of under 10%.
With CCc1nc2c(C)cc(C)nc2n1Cc1ccc(/C(=C\C(=O)O)c2ccccc2)cc1 (stereo in doubt; 12B) [listing 2 of 2 here] the inhibition [2] was 22.9%.
Compound CCc1nc2c(C)cc(C)nc2n1Cc1ccc(C(c2ccccc2)C(CC)C(=O)O)cc1 (stereo not given) has an IC50 [1] of 78 nM and an inhibition [2] of 76.2%.
CCc1nc2c(C)cc(C)nc2n1Cc1ccc(C(c2ccccc2)C(Br)C(=O)O)cc1 (stereo not given) showed an IC50 [1] of 170 nM and an inhibition [2] of 47.1%.
CCc1nc2c(C)cc(C)nc2n1Cc1ccc(/C(=C(/Br)c2nn[nH]n2)c2ccccc2)cc1 (stereo in doubt; 22d) [listing 2 of 2 here] was tested, and the inhibition [2] was 22.8%.
